Experimental data as given in patent US20240293420A1, “PHARMACEUTICAL COMPOSITION, PREPARATION, AND PREPARATION METHOD THEREFOR AND USE THEREOF” (WUHAN LL SCIENCE AND TECHNOLOGY DEVELOPMENT CO., LTD., priority 2021, published 2024).
≈ marks a conversion by molar mass, not a printed value. Entries after “also recorded” stand apart in the source; their conditions may differ.

What was measured:
[1] = Variable humidity XRPD (VH-XRPD) of crystal form III; assay type: physicochemical
From the text: The instrument parameters are as follows:
The humidity change program settings are as follows: […]

[2] = Pharmacokinetic experiments in Beagles; assay type: in vivo; settings: Beagle, male, PO, 10 mg/kg, plasma
Method: The present disclosure preferred crystal forms I, III, and V of the compound in the above examples for pharmacokinetic experiments in Beagles, and the relevant experiments are as follows:
Animal: 9 Beagles, male, divided into three groups with 3 in each group, weight ranging from 10 to 13 kg (source & certificate number: Beijing Marshall Biotechnology Co., Ltd., No. 1103182011000161)
Administration mode and dosage: PO: 10 mg/kg
Preparation: 0.5% CMC-Na was used as the solvent, and 400 mg of each of the three different crystal forms of compound A were weighed and added to the corresponding 79 mL of solvent, respectively. The mixture was subjected to ultrasonication for 20 minutes, added with a stirrer, and mixed thoroughly for 3 hours (the storage period from compound preparation to animal administration at room temperature was less than 6 hours). After the drug solution became a homogeneous and fine suspension, which was observed by the naked eye, the solvent was gradually added until the specified volume reached the target concentration. The preparation was stirred for 10 minutes at room temperature before administration, and stirred continuously during administration.
Time points for sampling: the time points for blood sampling in the PO group were 0.167, 0.5, 1, 2, 4, 6, 8, and 24 hours.
Animals in the PO group were fasted overnight except for free access to water before administration, and resumed food supply 4 hours after administration.
After Beagles in the […] were administered, blood was collected from Beagles by jugular vein puncture according to the time points for sampling. About 1.0 mL of blood was collected at each time point and transferred to an anticoagulant EP tube (containing 10 μL of EDTA-K2, 375 mg/mL). The tube was gently inverted three times, stored in an ice box (no more than 30 minutes), and centrifuged at 3200 g for 10 minutes at 4° C. The plasma was transferred to an ultra-low temperature refrigerator and stored until detection.
Sample pretreatment process: 40 μL of sample was taken, and 160 μL of acetonitrile solution containing 0.1% FA and 200 ng/mL of mixed standard solution was added to precipitate the protein. The mixture was vortexed and mixed well, and the sample was centrifuged in a 4° C. centrifuge at 13000 pm for 10 minutes. 100 μL of the supernatant was transferred to another 96 deep well plate, then 100 μL of methanol:water (1:3, v:v) solution containing 0.1% FA was added thereto, and the mixture was shaken and mixed for 10 minutes.
• Ion source: ion electrospray (ESI) • Ionization mode: positive ion mode (Positive) • Detection mode (mode): multiple reaction monitoring (MRM) • Ion spray voltage: 5500 V • Ion spray temperature (turbo ion spray temp): 550° C. • Curtain gas type: nitrogen setting: 35 • Collision cell gas type (CAD gas type): nitrogen setting: medium • Nebulizing gas type (gas 1): nitrogen setting: 55.00 • Auxiliary gas type (gas 2): nitrogen setting: 55.00
• Chromatographic column: poroshell 120 EC-C18 (4.6×50 mm, 2.7 μm) • Mobile phase A: 0.1% formic acid aqueous solution • Mobile phase B: a solution of 0.1% formic acid in methanol • Auto sampler wash solution (rinse port wash solution): 50% methanol • Column temperature: 40° C. • Flow rate: 0.55 mL/min • Auto sampler temperature (sample tray temp): 10° C. • Injection volume: 3 μL • Lift of presser foot (needle stroke): 49 mm • Auto sampler rinse setting (rinse pump setting): rinse port only • Auto sampler rinse mode (rinse mode): before aspiration • Auto sampler rinse volume for needle (rinse volume): 500 μL • Dip time when rinsing the injection needle (rinse dip time): 2 seconds
The data would be analyzed using WinNonlin (version 5.2.1 Pharsight, Mountain View, CA) through a non-compartmental model to obtain PK parameters (selecting Cmax, Tmax, AUClast, T1/2, and other parameters according to different routes of administration).

[3] = Dynamic vapor sorption (DVS) test; assay type: physicochemical
[4] = Crystal form (XRPD) in preparation process of coated tablets; assay type: physicochemical; settings: samples at stages of wet granulation and tabletting; listed as API
From the text: In order to investigate the impact of the preparation process of the preparation on the crystal form, samples were taken at different stages during the preparation process of the coated tablets according to Example 17.3 and analyzed. The analysis results are shown in Table I. The summarized results of the XRPD patterns of the products at each time point for sampling are shown in FIG. 52.
The investigation results are shown in Table J. The XRPD results of the crystal form of the coated tablet, API, and the blank excipient are shown in FIG. 53.

[5] = Crystal form transformation under humidity / drying (XRPD); assay type: physicochemical; settings: humidity or drying as stated in the value
From the text: Crystal form I can be obtained by the preparation method in Example 3. […] (FIG. 29). Combined with the DVS test results (FIG. 30), it can be seen that the mutual transformation between crystal forms I and IV is reversible.
Crystal form IV is a hygroscopic product of crystal form I under high humidity environment, and can be obtained by slurrying crystal form I or crystal form V in a mixed solvent of water/acetone with a water content of 50% to 95%.
Crystal form VI was obtained by slurrying crystal form I or crystal form V at 60° C. in a mixed solvent of water/acetone with a water content of 10% (volume ratio) at 60° C.
Crystal form VIII is a hydrate, but the hydrate is unstable.

[6] = Solubility tests in biological media of SGF, FaSSIF and FeSSIF; assay type: physicochemical
Method: The instrument used for liquid chromatography analysis was Agilent HPLC 1260 series, and the analytical method is shown in the table below.
The results of solubility tests of crystal forms I, III, and V in biological media of SGF, FaSSIF, and FeSSF are as shown in Table E and FIG. 43. There was little difference in the solubility of the above three crystal forms in different biological media, and the solubility in SGF was higher than 5 mg/mL.

[7] = Physical and chemical stability of crystal forms at 60° C. (closed) and 40° C./75% RH (open); assay type: physicochemical
Method: The physical and chemical stability of crystal forms I, III, and V at 60° C. (closed) and 40° C./75% RH (open) for 7 days were investigated respectively.
(closed) and 40° C./75% RH (open) for 3 months were investigated.

SMILES: COC(=O)N1CCO[C@@H](Cc2c(-c3c(F)cc(S(N)(=O)=O)cc3F)nc3cc(Cl)ccn23)C1 [Crystal form III, methyl (S)-2-((7-chloro-2-(2,6-difluoro-4-sulfamoylphenyl)imidazo[1,2-a]pyridin-3-yl)methyl)morpholine-4-carboxylate]
- crystal form at 0% RH ([1]; cycle of 40% RH-0% RH-40% RH at 25° C.): completely dehydrated at 0% RH and transformed into a new crystal form, anhydrous crystal form X
- water content at which crystal form III is stable ([1]; from DVS at 40% RH and TGA): above 1.6%
- XRPD results ([1]; procedure 6: 0% RH, 720 minutes): Anhydrous crystal form X
- XRPD results ([1]; procedure 7: 0% RH, 900 minutes): Anhydrous crystal form X
- XRPD results ([1]; procedure 10: 40% RH, 120 minutes): Crystal form III
- XRPD results ([1]; procedure 11 (end): 40% RH, 240 minutes): Crystal form III
- AUClast [2]: 14454 ± 3182 ng·h/mL
- Cmax [2]: 1159 ± 160 ng/mL
- T1/2 [2]: 12.9 ± 1.06 h
- Tmax [2]: 2.00 ± 0.00 h
- DVS hygroscopicity [3]: slightly hygroscopic
- XRPD before and after the DVS test [3]: no significant change in XRPD
- DVS (wt %, 80% RH) ([3]; 25° C., 80% RH): 2.7 wt %
- DVS (wt %, 90% RH) ([3]; 25° C., 90% RH): 2.8 wt %
- adsorbed water content ([3]; range of 10 to 80% RH): about 1.2%
- Crystal form in preparation process [4]: remained stable; also recorded: Crystal form III
- crystal form transformation [5]: quickly absorbed moisture under ambient humidity and became crystal form III again
- XRPD of remaining solid ([6]; FaSSIF, 0.5 h): Unchanged
- pH ([6]; FaSSIF, 0.5 h): 6.4
- XRPD of remaining solid ([6]; FaSSIF, 2 h): Unchanged
- pH ([6]; FaSSIF, 2 h): 6.4
- XRPD of remaining solid ([6]; FaSSIF, 24 h): Unchanged
- pH ([6]; FaSSIF, 24 h): 6.4
- XRPD of remaining solid ([6]; FeSSIF, 0.5 h): Unchanged
- pH ([6]; FeSSIF, 0.5 h): 4.9
- Solubility ([6]; FeSSIF, 2 h): 88 µg/mL (≈ 176 µM)
- XRPD of remaining solid ([6]; FeSSIF, 2 h): Unchanged
- pH ([6]; FeSSIF, 2 h): 4.8
- Solubility ([6]; FeSSIF, 24 h): 120 µg/mL (≈ 240 µM)
- XRPD of remaining solid ([6]; FeSSIF, 24 h): Unchanged
- pH ([6]; FeSSIF, 24 h): 4.9
- pH ([6]; SGF, 0.5 h): 1.0
- solubility at 0.5 h ([6]; simulated gastric fluid, thermodynamic from solid, SGF, 0.5 h, visual observation): > 5000 µg/mL
- Purity - 7 days (peak area %) ([7]; 40° C./75% RH (open)): 99.35 peak area %
- Purity - 1 month (peak area %) ([7]; 40° C./75% RH): 99.29 peak area %
- Purity - 3 months (peak area %) ([7]; 40° C./75% RH): 99.23 peak area %
- XRPD - 3 months ([7]; 40° C./75% RH): Crystal form III
- Purity - 7 days (peak area %) ([7]; 60° C. (closed)): 99.35 peak area %
- Purity - 1 month (peak area %) ([7]; 60° C.): 99.28 peak area %
- Purity - 3 months (peak area %) ([7]; 60° C.): 99.25 peak area %
- XRPD - 3 months ([7]; 60° C.): Crystal form III
- Initial purity (peak area %) [7]: 99.34 peak area %
- Initial purity (peak area %) ([7]; listed as crystal form III): 99.33 peak area %
